In assay [1] the test system is Arabidopsis thaliana wild type (Col-0) seedlings. Description: Arabidopsis seedling growth (cotyledon size, primary root elongation). In kind it is in vivo.
For the next assay, the system named is rat E18 cortical neurons. Briefly: Viability of cultured primary neurons (calcein fluorescence), tBHP oxidative stress. In kind it is cell-based.
For a further assay, the target named is T1, rat brain FAAH (Rattus norvegicus, UniProt P97612).
T1 construct: host or cells: rat brain
T1 sequence (P97612 1-579): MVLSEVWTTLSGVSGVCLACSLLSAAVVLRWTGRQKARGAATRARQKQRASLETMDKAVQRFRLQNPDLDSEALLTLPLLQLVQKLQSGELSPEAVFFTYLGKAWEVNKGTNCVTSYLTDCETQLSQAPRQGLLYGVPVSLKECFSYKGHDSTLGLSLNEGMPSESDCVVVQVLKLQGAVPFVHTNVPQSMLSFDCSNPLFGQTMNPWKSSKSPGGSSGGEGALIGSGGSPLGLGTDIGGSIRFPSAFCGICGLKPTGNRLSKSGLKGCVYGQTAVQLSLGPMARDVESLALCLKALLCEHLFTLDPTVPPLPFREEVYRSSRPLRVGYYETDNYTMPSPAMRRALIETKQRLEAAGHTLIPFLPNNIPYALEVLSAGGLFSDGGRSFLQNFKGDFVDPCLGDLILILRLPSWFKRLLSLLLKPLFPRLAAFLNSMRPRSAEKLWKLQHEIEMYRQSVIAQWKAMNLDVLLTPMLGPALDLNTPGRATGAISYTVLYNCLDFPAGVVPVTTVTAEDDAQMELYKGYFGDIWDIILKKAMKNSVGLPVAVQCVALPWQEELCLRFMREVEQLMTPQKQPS
The conditions noted are these: reported value; read-out: IC50 for anandamide hydrolysis; cited from earlier work.

The target of assay [2] is T2, NAE amidohydrolase activity from crude seedling extracts (Arabidopsis thaliana, UniProt Q7XJJ7).
T2 construct: from tissue; host or cells: 11-day-old Arabidopsis thaliana Col-0 seedlings, total solubilized protein
T2 sequence (Q7XJJ7 1-607): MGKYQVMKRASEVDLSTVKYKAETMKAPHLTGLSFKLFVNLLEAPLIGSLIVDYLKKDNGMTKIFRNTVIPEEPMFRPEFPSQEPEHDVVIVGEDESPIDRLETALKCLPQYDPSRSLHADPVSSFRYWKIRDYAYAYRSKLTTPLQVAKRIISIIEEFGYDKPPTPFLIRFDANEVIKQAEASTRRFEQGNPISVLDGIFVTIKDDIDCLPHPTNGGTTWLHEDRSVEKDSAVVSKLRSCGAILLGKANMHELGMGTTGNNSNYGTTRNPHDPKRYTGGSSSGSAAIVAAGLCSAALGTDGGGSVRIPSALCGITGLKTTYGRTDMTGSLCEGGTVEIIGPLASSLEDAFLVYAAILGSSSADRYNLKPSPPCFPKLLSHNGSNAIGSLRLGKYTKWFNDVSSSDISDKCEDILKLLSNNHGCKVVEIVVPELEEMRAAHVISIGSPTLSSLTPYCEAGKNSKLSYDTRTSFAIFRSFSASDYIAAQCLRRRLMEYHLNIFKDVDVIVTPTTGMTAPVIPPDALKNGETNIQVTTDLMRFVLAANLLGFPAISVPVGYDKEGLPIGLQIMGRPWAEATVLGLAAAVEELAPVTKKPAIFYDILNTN
Description: Plant amidohydrolase assay on crude seedling protein extract. It counts as biochemical. The conditions noted are these: [1-14C]-NAE 12:0, 11-d-old seedlings, 2 hours.

Assay [3] deals with T3, rat FAAH (Rattus norvegicus, UniProt P97612).
T3 construct: made in house; host or cells: E. coli TOP10
T3 sequence (P97612 1-579): T1 sequence (P97612 1-579)
Briefly: NAE amidohydrolase assay on purified recombinant rat FAAH. It counts as biochemical.

Assay [4] has as its target T4, Arabidopsis thaliana FAAH (AT-FAAH) (Arabidopsis thaliana, UniProt Q7XJJ7).
T4 construct: made in house; host or cells: E. coli TOP10
T4 sequence (Q7XJJ7 1-607): T2 sequence (Q7XJJ7 1-607)
Description: NAE amidohydrolase assay on purified recombinant At-FAAH. In kind it is biochemical.

The target of another assay is T5, At-FAAH (Arabidopsis thaliana, UniProt Q7XJJ7).
T5 construct: made in house; host or cells: E. coli TOP10
T5 sequence (Q7XJJ7 1-607): T2 sequence (Q7XJJ7 1-607)
Briefly: Ethanolamine inhibition assay, At-FAAH. In kind it is biochemical.

The target in assay [5] is T3, rat FAAH. Briefly: Ethanolamine inhibition assay, rat FAAH. It counts as biochemical.
[6] abbreviates: 2 μg protein, 100 μM-300 μM substrate, TLC.
Setting [7] is: 100 μM [1-14C]-NAE 12:0 with 100 μM compound.
Setting [8] is: 100 μM compound, up to 10 mM ethanolamine, 100 μM [1-14C]-NAE 12:0.

Structures are written as SMILES.

Description for rat E18 cortical neurons: Commercially obtained Sprague/Dawley rat E18 cortical tissue was allowed to settle for 5-10 minutes at room temperature, the shipping media was removed (reserved at 37° C.), and the tissue was enzymatically treated with NeuroPapain dissolved in NeuroPrep Medium (2 mg/ml, 2.5 ml) for 28 minutes at 37° C. with gentle swirling every 7 minutes. Treated tissue was centrifuged for 1.5 minutes at 200×g and the cells were dissociated by gentle trituration in 1 ml of the reserved shipping medium. Cells were collected by centrifugation as above and re-suspended by gentle trituration in 1 ml of NeuroPure plating medium. Viable cells were counted, (Nexcelom Auto T4; Nexcelom Bioscience LLC. Lawrence, Mass.) re-suspended in 9 ml of NeuroPure plating medium plus enough Neurobasal medium (supplemented with B27; GlutaMAX I, 2 mM; Penicillin, 50 U/ml; Streptomycin, 50 μg/ml) to achieve a density of 250,000 cells/ml, and seeded in BD PureCoat™ black-walled amine-coated 96-well plates in a 100 μl volume. […]
Oxidative stress was induced by the addition of concentrated tert-butyl hydrogen peroxide (tBHP) to achieve a final concentration of 7.5 μM. […] For each condition, six replicate wells were measured and the mean value was used for statistical analyses. Data was analyzed and plotted using Prism 5.0 (GraphPad Software Inc., La Jolla, Calif.). […]

Regarding `CCCCCCCCCCCC(=O)NCCO` [NAE 12:0, N-lauroylethanolamine, reference compound], the “seedling growth on exogenous application” value in assay [1] (applied exogenously) is given as “inhibits seedling growth”.

Take `CCCCCCCCCCCCCCCC(=O)NCCO` [NAE 16:0, N-palmitoylethanolamine]: the “reversal of cardanol-induced exacerbation of tBHP mediated cell death” value in the assay with rat E18 cortical neurons (1 hour prior to addition of 1 nM cardanol-EA) is on record as “dose-dependent reversal”. Also, the IC50 on rat brain FAAH was 5.1 µM.

As for `CCCCCCCCCCCCCCCc1cccc(OCC(=O)NCCO)c1` [PDP-EA, N-(2-hydroxyethyl)-2-(3-pentadecylphenoxy)acetamide], the “NAE amidohydrolase activity of crude seedling extracts” value in assay [2] is recorded as “enhancement”. Moreover, the “apparent Vmax” value (at rat FAAH [3]; in assay [4]) was “increased” each time. For the same molecule, the “hydrolysis of the compound as substrate to acid form and ethanolamine” value (on rat FAAH [3] (setting [6]); in assay [4] (setting [6])) was “not suitable substrates” each time. Further, the “amidohydrolase activity toward NAE” value (at rat FAAH [3] (setting [7]); in assay [4] (setting [7])) was “increased” in each case. Also, the “increase of activity by a factor” value is reported as “about 5±2.2” at rat FAAH [3] (100 μM compound, NAE 16:0 and NAE 12:0); “about 4±1.2” in assay [4] (100 μM compound, different [1-14C]-NAEs). In addition, the “Kcat versus solvent control” value at rat FAAH [3] (NAE 20:4 substrate, 100 μM compound) was “increase in Kcat”. Also, the “reversal of negative seedling growth effects of exogenous NAE 12:0” value in assay [1] (30 μM NAE 12:0, 20 μM compound, 11 days) is “reverse partially”. Further, in assay [1] (compound alone, 11 days), the “seedling growth (cotyledon size), compound alone” value is on record as “positive impact on seedling growth”. Besides, the “reversal of negative effects of NAE 12:0 on cotyledon size” value in assay [1] (with NAE 12:0, 11 days) is “partially reversed”. Besides, the “Km app versus solvent control” value in assay [4] (NAE 12:0 substrate, 100 μM compound, T-test confidence level 95%) was “No statistical difference”. Moreover, in assay [4] (heat-denaturated enzyme, 100 μM compound), the “non-enzymatic hydrolysis of NAE to free fatty acid” value is listed as “no activity”. Also, the “protection from ethanolamine product inhibition” value on At-FAAH (setting [8]) and on rat FAAH [5] (setting [8]) was “relieved this ethanolamine inhibition almost completely” throughout.

For the molecule `NC(=O)c1cccc(-c2cccc(OC(=O)NC3CCCCC3)c2)c1` [URB597], the “reversal of cardanol-induced exacerbation of tBHP mediated cell death by FAAH inhibitor” value in the assay with rat E18 cortical neurons is recorded as “completely reversed”.

For `NCCO` [ethanolamine], the “NAE hydrolase activity at increasing ethanolamine concentrations” value on At-FAAH (0-100 mM ethanolamine) and on rat FAAH [5] (0-100 mM ethanolamine) was “dose-dependent reduction” in each case.

The values above are taken from patent US9849101B2, “Method for enhancing amidohydrolase activity of fatty acid amide hydrolase” (Research Foundation of the City University of New York, priority 2013, dated 2017).
